Results from PubChem BioAssay (NCI).
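A five-concentration, 48-hour dose response in 96-well plates underlies each endpoint, interpolated linearly between surrounding concentrations. The concentration for 50% growth inhibition is given as GI50. At the TGI there is no net growth.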

What was measured:
Assay in all cases: DTP human tumour cell line panel, 48 h
HCC-2998 colon = tested on: HCC-2998 colon
COLO 205 colon = tested on: COLO 205 colon
M14 melanoma = tested on: M14 melanoma
MDA-MB-435 = tested on: MDA-MB-435
NCI-H460 lung = tested on: NCI-H460 lung
MALME-3M melanoma = tested on: MALME-3M melanoma
K-562 leukemia = tested on: K-562 leukemia
SNB-75 CNS = tested on: SNB-75 CNS
NCI-H522 lung = tested on: NCI-H522 lung
SK-MEL-28 melanoma = tested on: SK-MEL-28 melanoma
T-47D breast = tested on: T-47D breast
A549 NSCLC = tested on: A549 NSCLC
UACC-257 melanoma = tested on: UACC-257 melanoma
HOP-92 NSCLC = tested on: HOP-92 NSCLC
SR leukemia = tested on: SR leukemia
SK-MEL-2 melanoma = tested on: SK-MEL-2 melanoma
OVCAR-4 ovarian = tested on: OVCAR-4 ovarian
HL-60(TB) leukemia = tested on: HL-60(TB) leukemia
RPMI-8226 leukemia = tested on: RPMI-8226 leukemia
U251 CNS = tested on: U251 CNS
NCI-H226 lung = tested on: NCI-H226 lung
NCI-H23 lung = tested on: NCI-H23 lung
TK-10 renal = tested on: TK-10 renal
CAKI-1 renal = tested on: CAKI-1 renal
UO-31 renal = tested on: UO-31 renal
OVCAR-8 ovarian = tested on: OVCAR-8 ovarian
786-0 renal = tested on: 786-0 renal
OVCAR-5 ovarian = tested on: OVCAR-5 ovarian
BT-549 breast = tested on: BT-549 breast
SK-MEL-5 melanoma = tested on: SK-MEL-5 melanoma
SF-295 CNS = tested on: SF-295 CNS
HOP-62 NSCLC = tested on: HOP-62 NSCLC
SK-OV-3 ovarian = tested on: SK-OV-3 ovarian
A498 renal = tested on: A498 renal
MCF7 breast = tested on: MCF7 breast
MDA-MB-231 breast = tested on: MDA-MB-231 breast
HCT-15 colon = tested on: HCT-15 colon
UACC-62 melanoma = tested on: UACC-62 melanoma
SNB-19 CNS = tested on: SNB-19 CNS
LOX IMVI melanoma = tested on: LOX IMVI melanoma
HCT-116 colon = tested on: HCT-116 colon
MOLT-4 leukemia = tested on: MOLT-4 leukemia
KM12 colon = tested on: KM12 colon
DU-145 prostate = tested on: DU-145 prostate
SF-268 CNS = tested on: SF-268 CNS
RXF 393 renal = tested on: RXF 393 renal
OVCAR-3 ovarian = tested on: OVCAR-3 ovarian
NCI/ADR-RES ovarian = tested on: NCI/ADR-RES ovarian
EKVX NSCLC = tested on: EKVX NSCLC
PC-3 prostate = tested on: PC-3 prostate
HT29 colon = tested on: HT29 colon
CCRF-CEM leukemia = tested on: CCRF-CEM leukemia
ACHN renal = tested on: ACHN renal
IGROV1 ovarian = tested on: IGROV1 ovarian
SN12C renal = tested on: SN12C renal
SW-620 colon = tested on: SW-620 colon
SF-539 CNS = tested on: SF-539 CNS

SMILES: Cn1c(-c2c(N)n(CCCN3CCOCC3)c3nc(C#N)c(C#N)nc23)nc2ccccc21
- GI50 (HCC-2998 colon): 20.1 µM
- TGI (HCC-2998 colon): 40 µM
- GI50 (COLO 205 colon): > 42.8 µM
- TGI (COLO 205 colon): > 61.7 µM
- GI50 (M14 melanoma): > 100 µM
- TGI (M14 melanoma): > 100 µM
- GI50 (MDA-MB-435): > 100 µM
- TGI (MDA-MB-435): > 100 µM
- GI50 (NCI-H460 lung): > 42.5 µM
- TGI (NCI-H460 lung): > 64.3 µM
- GI50 (MALME-3M melanoma): 31.9 µM
- TGI (MALME-3M melanoma): > 83.7 µM
- TGI (K-562 leukemia): > 74.7 µM
- GI50 (SNB-75 CNS): 4.34 µM
- TGI (SNB-75 CNS): 25 µM
- GI50 (NCI-H522 lung): 26.8 µM
- TGI (NCI-H522 lung): > 100 µM
- GI50 (SK-MEL-28 melanoma): 3.03 µM
- TGI (SK-MEL-28 melanoma): 11.8 µM
- GI50 (T-47D breast): 26.2 µM
- TGI (T-47D breast): > 69.5 µM
- GI50 (A549 NSCLC): 22.5 µM
- TGI (A549 NSCLC): 46.3 µM
- GI50 (UACC-257 melanoma): 25.7 µM
- TGI (UACC-257 melanoma): > 100 µM
- GI50 (HOP-92 NSCLC): 2.73 µM
- TGI (HOP-92 NSCLC): 49.8 µM
- GI50 (SR leukemia): 2.66 µM
- TGI (SR leukemia): > 26.6 µM
- GI50 (SK-MEL-2 melanoma): 45.3 µM
- TGI (SK-MEL-2 melanoma): > 100 µM
- GI50 (OVCAR-4 ovarian): 17.9 µM
- TGI (OVCAR-4 ovarian): > 100 µM
- GI50 (HL-60(TB) leukemia): 0.704 µM
- TGI (HL-60(TB) leukemia): 2.08 µM
- GI50 (RPMI-8226 leukemia): 0.909 µM
- TGI (RPMI-8226 leukemia): > 52.7 µM
- GI50 (U251 CNS): 9.7 µM
- TGI (U251 CNS): > 63.8 µM
- GI50 (NCI-H226 lung): 27.8 µM
- TGI (NCI-H226 lung): > 52.9 µM
- GI50 (NCI-H23 lung): 27 µM
- TGI (NCI-H23 lung): > 81.9 µM
- GI50 (TK-10 renal): 32.7 µM
- TGI (TK-10 renal): 97.3 µM
- GI50 (CAKI-1 renal): 7.52 µM
- TGI (CAKI-1 renal): > 49.6 µM
- GI50 (UO-31 renal): 6.36 µM
- TGI (UO-31 renal): 55.6 µM
- GI50 (OVCAR-8 ovarian): 4.99 µM
- TGI (OVCAR-8 ovarian): > 100 µM
- GI50 (786-0 renal): 24.7 µM
- TGI (786-0 renal): > 69 µM
- GI50 (OVCAR-5 ovarian): > 77.7 µM
- TGI (OVCAR-5 ovarian): > 100 µM
- GI50 (BT-549 breast): 16.1 µM
- TGI (BT-549 breast): > 64.5 µM
- TGI (SK-MEL-5 melanoma): > 44.9 µM
- GI50 (SF-295 CNS): 19.6 µM
- TGI (SF-295 CNS): > 58.1 µM
- GI50 (HOP-62 NSCLC): 20.6 µM
- TGI (HOP-62 NSCLC): 77.6 µM
- GI50 (SK-OV-3 ovarian): 51.7 µM
- TGI (SK-OV-3 ovarian): > 100 µM
- GI50 (A498 renal): 39.4 µM
- TGI (A498 renal): 92.5 µM
- GI50 (MCF7 breast): 1.48 µM
- TGI (MCF7 breast): > 43.8 µM
- GI50 (MDA-MB-231 breast): 7.87 µM
- TGI (MDA-MB-231 breast): > 53.1 µM
- TGI (HCT-15 colon): > 53.4 µM
- GI50 (UACC-62 melanoma): > 34.5 µM
- TGI (UACC-62 melanoma): > 100 µM
- GI50 (SNB-19 CNS): 23.8 µM
- TGI (SNB-19 CNS): > 100 µM
- GI50 (LOX IMVI melanoma): 11.3 µM
- TGI (LOX IMVI melanoma): > 52.5 µM
- GI50 (HCT-116 colon): 4.03 µM
- TGI (HCT-116 colon): > 33.4 µM
- GI50 (MOLT-4 leukemia): 6.73 µM
- TGI (MOLT-4 leukemia): > 67.6 µM
- GI50 (KM12 colon): 12.4 µM
- TGI (KM12 colon): 31.4 µM
- GI50 (DU-145 prostate): 3.68 µM
- TGI (DU-145 prostate): 29.2 µM
- GI50 (SF-268 CNS): 7.16 µM
- TGI (SF-268 CNS): 62.2 µM
- GI50 (RXF 393 renal): 16.4 µM
- TGI (RXF 393 renal): 45 µM
- GI50 (OVCAR-3 ovarian): 1.8 µM
- TGI (OVCAR-3 ovarian): 13.4 µM
- GI50 (NCI/ADR-RES ovarian): > 28.3 µM
- TGI (NCI/ADR-RES ovarian): > 100 µM
- GI50 (EKVX NSCLC): > 57 µM
- TGI (EKVX NSCLC): > 100 µM
- GI50 (PC-3 prostate): 3.82 µM
- TGI (PC-3 prostate): > 100 µM
- TGI (HT29 colon): > 72.4 µM
- GI50 (CCRF-CEM leukemia): 2.69 µM
- TGI (CCRF-CEM leukemia): > 28.9 µM
- GI50 (ACHN renal): 41.7 µM
- TGI (ACHN renal): > 100 µM
- GI50 (IGROV1 ovarian): > 100 µM
- TGI (IGROV1 ovarian): > 100 µM
- GI50 (SN12C renal): 8.85 µM
- TGI (SN12C renal): > 80.2 µM
- GI50 (SW-620 colon): 1.74 µM
- TGI (SW-620 colon): > 45 µM
- GI50 (SF-539 CNS): 1.85 µM
- TGI (SF-539 CNS): 7 µM

SMILES: C/C(=C\c1csc(C)n1)[C@@H]1C[C@@H]2O[C@@H]2CCC[C@H](C)[C@H](O)[C@@H](C)C(=O)C(C)(C)[C@@H](O)CC(=O)O1
- TGI (HCC-2998 colon): < 0.0001 µM
- TGI (COLO 205 colon): 0.0804 µM
- TGI (MDA-MB-435): < 0.0001 µM
- TGI (NCI-H460 lung): > 100 µM
- TGI (SNB-75 CNS): < 0.0001 µM
- TGI (NCI-H522 lung): < 0.0001 µM
- TGI (T-47D breast): > 100 µM
- TGI (A549 NSCLC): > 100 µM
- TGI (UACC-257 melanoma): > 100 µM
- TGI (HOP-92 NSCLC): 0.608 µM
- TGI (SR leukemia): 0.00609 µM
- GI50 (OVCAR-4 ovarian): 23 µM
- TGI (OVCAR-4 ovarian): > 100 µM
- TGI (HL-60(TB) leukemia): > 100 µM
- TGI (TK-10 renal): > 100 µM
- TGI (786-0 renal): > 100 µM
- TGI (BT-549 breast): > 100 µM
- TGI (SF-295 CNS): < 0.0001 µM
- TGI (SK-OV-3 ovarian): 0.398 µM
- TGI (A498 renal): 0.333 µM
- TGI (MCF7 breast): 0.349 µM
- TGI (SNB-19 CNS): > 100 µM
- TGI (HCT-116 colon): > 100 µM
- TGI (MOLT-4 leukemia): > 100 µM
- TGI (KM12 colon): > 100 µM
- TGI (DU-145 prostate): 0.00464 µM
- TGI (SF-268 CNS): > 100 µM
- TGI (NCI/ADR-RES ovarian): 0.000598 µM
- TGI (EKVX NSCLC): 0.525 µM
- TGI (PC-3 prostate): > 100 µM
- TGI (HT29 colon): 0.000586 µM
- TGI (CCRF-CEM leukemia): > 100 µM
- TGI (ACHN renal): > 100 µM
- TGI (IGROV1 ovarian): > 100 µM
- TGI (SW-620 colon): 18.7 µM
- TGI (SF-539 CNS): < 0.0001 µM
